{"source": "patent US20090226898A1", "about": "“Mitochondrial markers of ischemia” (Inverness Medical Switzerland GMBH, priority 2005, published 2009)", "origin": "cited, not measured here", "key": {"FPR-like 2 (FPRL2)": {"target": "T1, FPR-like 2 (FPRL2) (Homo sapiens, UniProt P25089)", "T1 sequence (P25089 1-353)": "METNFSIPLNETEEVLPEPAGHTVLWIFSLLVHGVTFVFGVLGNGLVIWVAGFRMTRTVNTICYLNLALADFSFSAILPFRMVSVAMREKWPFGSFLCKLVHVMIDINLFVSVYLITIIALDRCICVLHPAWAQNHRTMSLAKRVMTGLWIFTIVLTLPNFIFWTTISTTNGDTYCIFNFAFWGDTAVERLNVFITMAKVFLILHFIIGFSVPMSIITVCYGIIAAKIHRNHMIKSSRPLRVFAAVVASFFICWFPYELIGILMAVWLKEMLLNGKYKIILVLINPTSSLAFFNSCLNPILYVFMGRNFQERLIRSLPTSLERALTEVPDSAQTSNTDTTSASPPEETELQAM"}, "[1]": {"system": "human monocytes and formyl peptide receptor-like 1 (FPRL1)-transfected human embryonic kidney 293 cells", "conditions": "human monocytes and FPRL1-transfected HEK 293 cells"}, "[2]": {"system": "human monocytes and formyl peptide receptor-like 1 (FPRL1)-transfected human embryonic kidney 293 cells", "conditions": "human monocytes and FPRL1-transfected HEK 293 cells", "remark": "listed apart in the source"}, "cardiac myocytes": {"system": "cardiac myocytes", "conditions": "immediately before ischemia"}, "[3]": {"target": "T2, FMLP receptor (68-kDa protein) (Homo sapiens, UniProt P21462)", "T2 sequence (P21462 1-350)": "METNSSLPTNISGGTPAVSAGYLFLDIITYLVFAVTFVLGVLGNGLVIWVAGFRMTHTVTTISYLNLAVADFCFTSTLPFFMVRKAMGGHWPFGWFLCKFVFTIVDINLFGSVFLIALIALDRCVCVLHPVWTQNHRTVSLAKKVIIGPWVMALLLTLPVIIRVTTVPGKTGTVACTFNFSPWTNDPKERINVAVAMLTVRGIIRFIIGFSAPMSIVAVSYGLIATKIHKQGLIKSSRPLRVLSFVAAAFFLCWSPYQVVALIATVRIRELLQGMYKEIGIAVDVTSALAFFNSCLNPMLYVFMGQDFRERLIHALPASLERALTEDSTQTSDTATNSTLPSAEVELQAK", "conditions": "binding to the 68-kDa protein"}}}
{"compound": "formyl-Met-Leu-Phe [fMLP]", "values": [{"measurement": "receptor activation", "setting": "FPR-like 2 (FPRL2)", "value": "only activated by high (micromolar) concentrations"}]}
{"compound": "LL-37: neutrophil granule- and epithelial cell-derived cathelicidin, from hCAP18 (aa1-37) (LLGDFFRKSKEKIGKEFKRIVQRIKDFLRNLVPRTES; Antibacterial peptide LL-37; UniProt P49913 134-170, looked up)", "values": [{"measurement": "calcium mobilization", "setting": "[1]", "value": "can induce calcium mobilization"}, {"measurement": "chemotaxis", "setting": "[2]", "value": "chemotactic"}]}
{"compound": "C=C(C)[C@H]1Cc2c(ccc3c2O[C@@H]2COc4cc(OC)c(OC)cc4[C@@H]2C3=O)O1", "note": "[rotenone]", "values": [{"measurement": "damage to mitochondria", "setting": "cardiac myocytes", "value": "reduces damage to mitochondria"}, {"measurement": "production of ROS", "setting": "cardiac myocytes; cardiac myocytes", "value": "decreases the production of ROS"}]}
{"compound": "RKAMGGHWPFGWFLCKF", "values": [{"measurement": "inhibition of ligand binding", "setting": "[3]", "value": "strongest inhibitor of ligand binding"}]}
